Test results as given in US20170281611A1, “QUINOLINES AND THEIR USE FOR TREATING ENDOPLASMIC RETICULUM STRESS-CAUSED DISEASES” (EIGER BIOPHARMACEUTICALS, INC., priority 2014, published 2017).

Tests used:
ob/ob mice [1] = test: Insulin tolerance test (ITT); type: in vivo, mouse; settings: day 10 post-injection, compared with vehicle
Description: (§1) Both glucose (GTT) and insulin (ITT) tolerance tests were performed following a 10-hr fast and an additional 2-hr after CDNs injection with baseline blood glucose measurement taken before the beginning of the test. For the GTT, D-glucose dissolved in 0.9% NaCl was delivered intraperitoneally at a dose of 1 g/kg. The blood glucose level was measured 0, 15, 30, 60, 90, and 120 min after glucose administration. For the ITT, insulin was administered intraperitoneally at a dose of 1 IU/kg. The blood glucose level was measured 0, 15, 30, 60, 90, and 120 min after insulin administration. Glucose levels were measured in blood samples drawn from the tail vein using OneTouch Ultra 2 Meter (LifeScan, Inc.).

[2] = molecular target: human nerepinephrine (NET) transporter (Homo sapiens, UniProt P23975); test: Selectivity panel of 164 targets: NET; settings: 10 μM in duplicate; one of only 4 hits among 164 targets
human nerepinephrine (NET) transporter, sequence (P23975 whole entry): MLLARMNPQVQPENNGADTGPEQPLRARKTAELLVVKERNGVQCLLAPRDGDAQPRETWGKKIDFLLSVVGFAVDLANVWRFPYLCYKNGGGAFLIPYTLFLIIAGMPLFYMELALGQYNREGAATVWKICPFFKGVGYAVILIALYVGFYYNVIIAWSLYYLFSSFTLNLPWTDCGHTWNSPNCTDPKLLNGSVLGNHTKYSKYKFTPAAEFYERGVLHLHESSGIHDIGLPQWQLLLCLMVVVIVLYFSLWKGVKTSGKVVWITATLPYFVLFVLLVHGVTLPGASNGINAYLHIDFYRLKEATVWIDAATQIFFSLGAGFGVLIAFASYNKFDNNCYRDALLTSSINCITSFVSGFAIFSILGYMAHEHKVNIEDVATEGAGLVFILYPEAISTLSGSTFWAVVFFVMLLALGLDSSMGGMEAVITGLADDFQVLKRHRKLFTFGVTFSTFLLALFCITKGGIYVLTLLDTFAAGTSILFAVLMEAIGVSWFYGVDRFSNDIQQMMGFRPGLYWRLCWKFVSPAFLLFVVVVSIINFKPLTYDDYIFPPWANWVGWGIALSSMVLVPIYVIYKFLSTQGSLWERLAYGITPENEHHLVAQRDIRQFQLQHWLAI
Source text: The methods used here for each target were adapted from the scientific literature to maximize reliability and reproducibility.

PERK, elF2α, CHOP = test: Liver protein markers of ER stress (western blot); type: in vivo, mouse; settings: liver of ob/ob mice, 50 mg/kg
Description: Proteins were analyzed by western blot and quantified. Bands were normalized to GAPDH and expressed as 100% of ob/ob+vehicle (ob). Liver tissues were homogenized with a bench-top homogenizer in an ice-cold tissue lysis buffer. The homogenized samples were centrifuged at 8,000×g for 20 min at 4° C. The lipid layer was removed and the supernatant was transferred into Eppendorf tubes. After centrifuging at 16,000×g for 60 min at 4° C., the supernatants were normalized to the same concentration and boiled at 100° C. in 1× Laemmli buffer for 5 min. The lysate was cooled to room temperature before loading for Western blot analysis. Protein lysate was resolved on SDS polyacrylamide gel and transferred onto PVDF membrane at a voltage of 100 V for 2 hrs at 4° C. The membrane was blocked in 10% blocking reagent and incubated overnight with a primary antibody in Tris-buffered saline solution/Tween (TBST)/10% blocking reagent at 4° C. After incubation, the membrane was washed three times in TBST for 20 min and incubated at room temperature with a secondary antibody in TBST/10% blocking reagent for 1 hr. The membrane was washed three times for 20 min and developed using a chemiluminescence assay system. To strip a membrane for another primary antibody, the membrane was agitated at 50° C. for 20 min in a box with stripping buffer (2% SDS and 100 mM 2-mercaptoethanol in TBS, pH 7.5). […]

[3] = Pharmacokinetics of compound A12 in Sprague Dawley rats; type: in vivo, rat; settings: oral, 2 mg/kg P.O.
Description: Pharmacokinetics of a test compound, compound A12, was assessed in Sprague Dawley rats. The compound was formulated at 1 mg/mL in DMSO/Tween 80/water (10/10/80, vol/vol/vol) and dosed at 1 mg/kg intravenous (i.v.) or 2 mg/kg by oral gavage (P.O.) in triplicate. Blood was drawn at 5 min, 15 min, 30 min, 1 hr, 2 hrs, 4 hrs, 6 hrs, and 8 hrs into EDTA containing tubes and plasma was harvested by centrifugation. Plasma (25 μL) was treated with acetonitrile (125 μL) containing an internal standard. The sample was then centrifuged for 5 min at 4,000 rpm in a tabletop centrifuge and the filtrate was collected. The filtrate was injected onto a Thermo Betasil C18 HPLC column 5μ (50×2.1 mm). Mobile Phase A was water with 0.1% formic acid. Mobile Phase B was acetonitrile with 0.1% formic acid. Separation was achieved using a gradient of 90% A/10% B to 5% A/95% B over 7 min. An API Sciex 4000 equipped with a turbo ion spray source was used for all analytical measurements. A positive ion MRM method was developed. Peak areas of the product ion were measured against the peak areas of the internal standard. Data was fit using WinNonLin (Pharsight Corporation, Mountain View, Calif.).

[4] = tested on: G6PAse, PEPCK, SCD1, DGAT2, FASn, SREBP1c, PPARα, PGC1α; test: Liver expression of gluconeogenesis and lipogenesis genes (real-time PCR); type: in vivo, mouse; settings: liver of ob/ob mice
Description: The expression of key genes involved in gluconeogenesis and lipogenesis was measured. RNA was isolated from liver samples of the ob/ob mice and mRNA expression of the indicated genes was quantified by Real-time PCR using iTaq Fast SYBR Green Supermix with ROX (Bio-Rad) in a 7500 Real-Time PCR systems (Applied Biosystems) using mouse specific primers. Gene expression is normalized to 18s. RNA was isolated using Trizol (Invitrogen). cDNA was generated using High Capacity cDNA Reverse Transcription kit (Applied Biosystems). Real-time PCR was performed with iTaq Fast SYBR Green Supermix with ROX (Bio-Rad) in 7500 Real-Time PCR systems (Applied Biosystems) using mouse specific primers. Gene expression was normalized to 18s. Isolated liver tissue was homogenized in RIPA buffer containing protease inhibitors and phosphatase inhibitors (Roche). Protein samples were matched for their protein concentrations and 30 micrograms of each sample were applied to SDS-PASE and transferred onto nitrocellulose membrane. Membranes were then incubated with the corresponding phosphor or total primary antibodies specific for the desired proteins followed by incubation with appropriate secondary antibodies conjugated to horseradish peroxidase (Pierce) and signal intensities were visualized by Chemiluminescence (Pierce). Films from at least four independent experiments were scanned and densities of the immunoreactive bands were evaluated using NIH Image software. GAPDH (Santa Cruz Biotechnology) was used as a loading control.

ob/ob mice [5] = test: Glucose tolerance test (GTT); type: in vivo, mouse; settings: day 7 post-injection, compared with vehicle
Description: as §1

Cc1ccc2cccc(NC(=O)c3ccc(OC(C)C)cc3)c2n1 [Compound A12, 4-Isopropoxy-N-(2-methylquinolin-8-yl)benzamide]
insulin-stimulated glucose deposal (ITT) (ob/ob mice [1]): strongly enhanced
response against human nerepinephrine (NET) transporter [2]: significant responses
expression of CHOP (PERK, elF2α, CHOP): significantly reduced
phosphorylation of PERK and elF2α (PERK, elF2α, CHOP): significantly reduced
T112 [3]: 1.17 h
expression of PPARα and its target PGC1α [4]: increased
mRNA expression of G6PAse and PEPCK [4]: significantly reduced
mRNA expression of lipogenic genes (SCD1, DGAT2, FASn, SREBP1c) [4]: significantly reduced
hyperglycemic response to the i.p. glucose challenge (GTT) (ob/ob mice [5]): significantly reduced
